Assay results as given in US8507536B2, “Gonadotropin-releasing hormone receptor antagonists and methods relating thereto” (Neurocrine Biosciences, Inc., priority 2007, dated 2013).

Target: T1, human GnRH receptor (Homo sapiens, UniProt P30968)
T1 construct: expressed in transfected cells; membrane preparations
T1 sequence (P30968 1-328): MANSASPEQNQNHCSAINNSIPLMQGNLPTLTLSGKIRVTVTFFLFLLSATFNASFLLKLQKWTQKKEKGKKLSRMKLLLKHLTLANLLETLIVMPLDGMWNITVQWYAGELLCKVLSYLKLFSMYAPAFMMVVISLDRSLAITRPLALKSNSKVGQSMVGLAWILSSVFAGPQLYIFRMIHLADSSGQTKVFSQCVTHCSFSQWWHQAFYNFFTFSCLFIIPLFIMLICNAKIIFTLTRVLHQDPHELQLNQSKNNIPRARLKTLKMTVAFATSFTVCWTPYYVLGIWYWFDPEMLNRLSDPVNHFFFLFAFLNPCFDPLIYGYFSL
Assay: peptide competitive human receptor binding assays (radioligand displacement)
Settings: tested in one or more of the peptide competitive human receptor binding assays
Protocol: HEK293 cells stably transfected with the human GnRH receptor are grown for two days after achieving confluence then are harvested by striking tissue culture flasks against a firm surface. Cells are collected by centrifugation at 1000 g for […]. Cell pellets are resuspended in 5% sucrose and homogenized using a polytron homogenizer for two 15 second homogenization steps. Cell homogenates are then centrifuged for 5 minutes at 3000 g to remove nuclei and the supernatant subsequently centrifuged for 30 minutes at 44,000 g to collect the membrane fraction. The membrane pellet is resuspended in GnRH binding buffer (10 mM HEPES, pH 7.5, 150 mM NaCl and 0.1% BSA) and aliquots immediately snap-frozen in liquid nitrogen and stored at −80° C. Protein content of the membrane suspension is determined using the Bio-Rad protein assay kit (Bio-Rad).
RBL cells stably transfected with the human GnRH receptor are grown to 80% confluency prior to harvesting. The cells are incubated at 37° C. for 10 min in 0.5 mM EDTA/PBS (Ca^++, Mg^++ free), and are dislodged from the plate by gentle rapping of the flasks. Cells are collected and pelleted by centrifugation at 1000 g for 5 minutes. Cell pellets are resuspended in buffer (DPBS supplemented with 10 mM MgCl2, 2 mM EGTA, pH=7.4), and cell lysis is performed using a pressure cell and applying N2 at a pressure of 900 psi for 30 min at 4° C. Unbroken cells and larger debris were removed by centrifugation at 1200 g for 10 min at 4° C. The cell membrane supernatant is then centrifuged at 45,000 g and the resulting membrane pellet is resuspended in assay buffer and homogenized on ice using a tissue homogenizer. Protein concentrations are determined using the Coomassie Plus Protein Reagent kit. Membranes are aliquoted and stored at −80° C. until ready for use.
Radioligand binding displacement assays using the peptide radioligands are performed in buffer containing 10 mM HEPES, 150 mM NaCl and 0.1% BSA, pH=7.5. Radioligand binding assays employing the use of [^3H]-1-(2,6-difluorobenzyl)-3-[(2R)-amino-2-phenethyl]-5-(2-fluoro-3-methoxyphenyl)-6-methyluracil (here the 3-methoxy group is tritiated) are run in buffer containing 50 mM Tris, 150 mM NaCl, 5 mM MgCl2, 0.01% saponin and 0.5 mM EDTA, pH=7.5. Radioligand displacement assays are performed by incubating radioligand ([^125I-Tyr^5, DLeu^6, NMeLeu^7, Pro^9-NEt]GnRH (0.1 nM), [His^5, ^125I-DTyr^6]GnRH (0.2 nM) (31) or [^3H]-1-(2,6-difluorobenzyl)-3-[(2R)-amino-2-phenethyl]-5-(2-fluoro-3-methoxyphenyl)-6-methyluracil (1 nM)), unlabeled competitors at concentrations ranging from 0.3 pM to 10 μM, and membranes for 2 hrs at rt. 10 to 20 μg protein/well is used from membrane preparations for human, monkey and rabbit GnRH receptor. 5 μg/well and 60 μg/well of membranes are used for rat and dog GnRH receptors, respectively. Binding assays are performed in either Millipore 96-well GF/C filtration plates (for ([^125I-Tyr^5, DLeu^6, NMeLeu^7, Pro^9-NEt]GnRH assays), or in 96 well low binding plates, which are subsequently filtered onto GF/C Unifilters. Filters are pretreated with 0.5% PEI for 30 min prior to use. Reactions are terminated by rapid vacuum filtration, and the filters are washed twice with 250 μL ice cold PBS pH=7.4 (0.01% Tween-20 is included in wash media for [His^5, ^125I-DTyr^6]GnRH and [^3H]-1-(2,6-difluorobenzyl)-3-[(2R)-amino-2-phenethyl]-5-(2-fluoro-3-methoxyphenyl)-6-methyluracil radioligands). The filters are dried, and the Millipore filters are monitored for radioactivity using a Cobra II gamma counter (Perkin Elmer Life Sciences). For assays filtered onto the GF/C Unifilter plates, 50 μL scintillation fluid is added to each filter, and radioactivity is monitored using a TopCount NXT. For iodinated radioligands, total radioligand is monitored on a gamma counter, and for the tritiated radioligand, total radioligand is monitored using a Perkin Elmer 1600TR liquid scintillation counter. […]

Row | Compound | Ki [nM]
1 | CN(c1ccccn1)S(=O)(=O)c1cc(-c2cnc(C(F)(F)F)cc2C#N)c(Cl)cc1OCCC(=O)O [Example 18-2, 3-[5-chloro-4-(4-cyano-6-trifluoromethyl-pyridin-3-yl)-2-(methyl-pyridin-2-yl-sulfamoyl)-phenoxy]-propionic acid] | ≤ 100
2 | CN(c1ccccn1)S(=O)(=O)c1cc(-c2cnc(C(F)(F)F)cc2C#N)c(Cl)cc1OCC(=O)O [Example 18-3, [5-chloro-4-(4-cyano-6-trifluoromethyl-pyridin-3-yl)-2-(methyl-pyridin-2-yl-sulfamoyl)-phenoxy]-acetic acid] | ≤ 100
3 | CN(c1ccccc1)S(=O)(=O)c1cc(-c2cnc(C(F)(F)F)cc2C#N)c(Cl)cc1OCC(=O)O [Example 19-1, [5-chloro-4-(4-cyano-6-trifluoromethyl-pyridin-3-yl)-2-(methyl-phenyl-sulfamoyl)-phenoxy]-acetic acid] | ≤ 100

Continued, values first:

Row | Ki [nM] | Compound
4 | ≤ 100 | CC1(C)CCN(S(=O)(=O)c2cc(-c3cnc(C(F)(F)F)cc3C#N)c(Cl)cc2CC(=O)O)c2ccccc21 [Example 17-1, [5-Chloro-4-(4-cyano-6-trifluoromethyl-pyridin-3-yl)-2-(4,4-dimethyl-3,4-dihydro-2H-quinoline-1-sulfonyl)-phenyl]-acetic acid]
5 | ≤ 100 | CN(c1ccccn1)S(=O)(=O)c1cc(-c2cnc(C(F)(F)F)cc2C#N)c(Cl)cc1OCCCC(=O)O [Example 18-1, 4-[5-chloro-4-(4-cyano-6-trifluoromethyl-pyridin-3-yl)-2-(methyl-pyridin-2-yl-sulfamoyl)-phenoxy]-butyric acid]
